Reference: the CheMixHub viscosity set
± gives the uncertainty stated by the source.

Experiment: xn = mol fraction of the nth substance listed

CCCCCCN + CCCCN(CCCC)CCCC
viscosity [mPa·s], 101 kPa
Settings | x2 = 0.1032 | x2 = 0.1936 | x2 = 0.3936 | x2 = 0.4924 | x2 = 0.6079 | x2 = 0.782 | x2 = 0.9153
303.15 K | 0.7562 ± 0.0071 | 0.7958 ± 0.0073 | 0.8857 ± 0.0078 | 0.9301 ± 0.0081 | 0.9836 ± 0.0084 | 1.063 ± 0.0089 | 1.125 ± 0.0093
313.15 K | 0.6517 ± 0.0065 | 0.6853 ± 0.0067 | 0.7606 ± 0.0071 | 0.7985 ± 0.0073 | 0.8436 ± 0.0076 | 0.9122 ± 0.008 | 0.9652 ± 0.0083

Oc1ccccc1 + CCCCN(CCCC)CCCC
298.16 K, 101 kPa
Settings | viscosity [mPa·s]
x1 = 0.5219 | 9.41 ± 0.17
x1 = 0.6008 | 14.9 ± 0.27
x1 = 0.6531 | 23.52 ± 0.45
x1 = 0.6723 | 27.66 ± 0.56
x1 = 0.7083 | 43.54 ± 0.99
x1 = 0.7386 | 64.37 ± 1.7
x1 = 0.7532 | 78.43 ± 2.3
x1 = 0.7783 | 108.3 ± 3.7
x1 = 0.7981 | 126.2 ± 4.7
x1 = 0.8207 | 131.2 ± 5
x1 = 0.8248 | 125.7 ± 4.7
x1 = 0.8491 | 110.5 ± 3.8
x1 = 0.8704 | 84.32 ± 2.5
x1 = 0.9022 | 56.08 ± 1.3
x1 = 0.9213 | 40.37 ± 0.81
x1 = 0.9711 | 20.65 ± 0.31

Oc1ccccc1 + CCCCNCCCC
298.16 K, 101 kPa
Settings | viscosity [mPa·s]
x1 = 0.5012 | 5.109 ± 0.096
x1 = 0.6086 | 13.4 ± 0.23
x1 = 0.6558 | 20.06 ± 0.37
x1 = 0.6934 | 34.09 ± 0.72
x1 = 0.7223 | 46.47 ± 1.1
x1 = 0.753 | 64.82 ± 1.7
x1 = 0.7713 | 74.82 ± 2.1
x1 = 0.7925 | 84.1 ± 2.5
x1 = 0.8147 | 89.23 ± 2.7
x1 = 0.8446 | 82.1 ± 2.4
x1 = 0.875 | 62.86 ± 1.6
x1 = 0.8948 | 49.73 ± 1.1

COC(=O)OC + CCCCO
Settings | viscosity [mPa·s]
293.15 K, 101 kPa, x1 = 0.05212 | 2.427
293.15 K, 101 kPa, x1 = 0.09994 | 2.071
293.15 K, 101 kPa, x1 = 0.191 | 1.611
293.15 K, 101 kPa, x1 = 0.2904 | 1.291
293.15 K, 101 kPa, x1 = 0.4109 | 1.029
293.15 K, 101 kPa, x1 = 0.4555 | 0.957
293.15 K, 101 kPa, x1 = 0.6133 | 0.775
293.15 K, 101 kPa, x1 = 0.7008 | 0.71
293.15 K, 101 kPa, x1 = 0.8063 | 0.656
293.15 K, 101 kPa, x1 = 0.907 | 0.63
293.15 K, 101 kPa, x1 = 0.9512 | 0.636
293.15 K, 101.3 kPa, x1 = 0.0518 | 2.461 ± 0.11
293.15 K, 101.3 kPa, x1 = 0.0975 | 2.119 ± 0.097
293.15 K, 101.3 kPa, x1 = 0.1961 | 1.586 ± 0.074
293.15 K, 101.3 kPa, x1 = 0.3064 | 1.218 ± 0.059
293.15 K, 101.3 kPa, x1 = 0.4108 | 1.023 ± 0.05
293.15 K, 101.3 kPa, x1 = 0.4769 | 0.929 ± 0.046
293.15 K, 101.3 kPa, x1 = 0.6101 | 0.794 ± 0.041
293.15 K, 101.3 kPa, x1 = 0.7043 | 0.719 ± 0.037
293.15 K, 101.3 kPa, x1 = 0.8043 | 0.644 ± 0.034
293.15 K, 101.3 kPa, x1 = 0.9052 | 0.607 ± 0.033
293.15 K, 101.3 kPa, x1 = 0.9508 | 0.605 ± 0.032
298.15 K, 101.3 kPa, x1 = 0.0527 | 2.192 ± 0.1
298.15 K, 101.3 kPa, x1 = 0.1009 | 1.877 ± 0.087
298.15 K, 101.3 kPa, x1 = 0.2002 | 1.411 ± 0.067
298.15 K, 101.3 kPa, x1 = 0.2986 | 1.127 ± 0.055
298.15 K, 101.3 kPa, x1 = 0.3974 | 0.952 ± 0.047
298.15 K, 101.3 kPa, x1 = 0.5039 | 0.831 ± 0.042
298.15 K, 101.3 kPa, x1 = 0.6008 | 0.748 ± 0.039
298.15 K, 101.3 kPa, x1 = 0.7028 | 0.673 ± 0.035
298.15 K, 101.3 kPa, x1 = 0.8011 | 0.611 ± 0.033
298.15 K, 101.3 kPa, x1 = 0.8965 | 0.572 ± 0.031
298.15 K, 101.3 kPa, x1 = 0.9503 | 0.569 ± 0.031
303.15 K, 101 kPa, x1 = 0.0494 | 1.938
303.15 K, 101 kPa, x1 = 0.1058 | 1.648
303.15 K, 101 kPa, x1 = 0.2154 | 1.256
303.15 K, 101 kPa, x1 = 0.2915 | 1.077
303.15 K, 101 kPa, x1 = 0.4086 | 0.882
303.15 K, 101 kPa, x1 = 0.5007 | 0.769
303.15 K, 101 kPa, x1 = 0.5847 | 0.697
303.15 K, 101 kPa, x1 = 0.7003 | 0.622
303.15 K, 101 kPa, x1 = 0.798 | 0.581
303.15 K, 101 kPa, x1 = 0.9065 | 0.553
303.15 K, 101 kPa, x1 = 0.9587 | 0.551
303.15 K, 101.3 kPa, x1 = 0.0249 | 2.078 ± 0.095
303.15 K, 101.3 kPa, x1 = 0.096 | 1.666 ± 0.078
303.15 K, 101.3 kPa, x1 = 0.1911 | 1.304 ± 0.062
303.15 K, 101.3 kPa, x1 = 0.2998 | 1.046 ± 0.051
303.15 K, 101.3 kPa, x1 = 0.3877 | 0.903 ± 0.045
303.15 K, 101.3 kPa, x1 = 0.4799 | 0.787 ± 0.04
303.15 K, 101.3 kPa, x1 = 0.5865 | 0.681 ± 0.036
303.15 K, 101.3 kPa, x1 = 0.6907 | 0.608 ± 0.033
303.15 K, 101.3 kPa, x1 = 0.7931 | 0.564 ± 0.031
303.15 K, 101.3 kPa, x1 = 0.8925 | 0.547 ± 0.03
303.15 K, 101.3 kPa, x1 = 0.9464 | 0.542 ± 0.03
313.15 K, 101 kPa, x1 = 0.04725 | 1.542
313.15 K, 101 kPa, x1 = 0.1216 | 1.252
313.15 K, 101 kPa, x1 = 0.2016 | 1.027
313.15 K, 101 kPa, x1 = 0.2876 | 0.857
313.15 K, 101 kPa, x1 = 0.3956 | 0.712
313.15 K, 101 kPa, x1 = 0.414 | 0.693
313.15 K, 101 kPa, x1 = 0.6043 | 0.552
313.15 K, 101 kPa, x1 = 0.6975 | 0.511
313.15 K, 101 kPa, x1 = 0.8019 | 0.484
313.15 K, 101 kPa, x1 = 0.9062 | 0.477
313.15 K, 101 kPa, x1 = 0.9368 | 0.479
313.15 K, 101.3 kPa, x1 = 0.0499 | 1.536 ± 0.072
313.15 K, 101.3 kPa, x1 = 0.0998 | 1.351 ± 0.064
313.15 K, 101.3 kPa, x1 = 0.2234 | 1.018 ± 0.05
313.15 K, 101.3 kPa, x1 = 0.3 | 0.88 ± 0.044
313.15 K, 101.3 kPa, x1 = 0.3991 | 0.752 ± 0.039
313.15 K, 101.3 kPa, x1 = 0.5054 | 0.662 ± 0.035
313.15 K, 101.3 kPa, x1 = 0.603 | 0.598 ± 0.032
313.15 K, 101.3 kPa, x1 = 0.6904 | 0.557 ± 0.03
313.15 K, 101.3 kPa, x1 = 0.8009 | 0.52 ± 0.029
313.15 K, 101.3 kPa, x1 = 0.9014 | 0.497 ± 0.028
313.15 K, 101.3 kPa, x1 = 0.9471 | 0.494 ± 0.028
